Columns and labels:
[1] = system: SAGPY (Arrowhead (Pygmaea)); assay: Postemergence weed control under flooded paddy conditions; assay type: in vivo, Sagittaria pygmaea; conditions: postemergence weeds, rated 3 to 4 weeks after treatment
How it was run: (§1)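 Herbicidal effect is judged by eye on a 0–9 scale versus control, 3–4 weeks after dosing. Dosing is into flood water kept 1.5–3 cm over the soil, at about 0.0313–0.500 kg/ha in aqueous/acetone 50/50 v/v, on 3–5 cm weeds and 1.5–2.5-leaf rice seedlings.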

[2] = system: AMBEL (Ragweed, Common); assay: Preemergence herbicidal evaluation; assay type: in vivo, Ambrosia artemisifolia; conditions: rated 4-5 weeks after treatment
How it was run: (§2)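 Sown cups got a single aqueous acetone spray of test compound (roughly 0.0156–0.500 kg/ha) before seedlings emerged. Evaluation, 4–5 weeks on, used a 0–9 visual scale covering plant stand, vigor, size, malformation, chlorosis and general appearance compared with controls.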

[3] = system: CYPSE (Flatsedge); assay: Postemergence weed control under flooded paddy conditions; assay type: in vivo, Cyperus serotinus; conditions: postemergence weeds, rated 3 to 4 weeks after treatment
How it was run: as §1

[4] = system: SETVI (Foxtail, Green); assay: Preemergence herbicidal evaluation; assay type: in vivo, Setaria viridis; conditions: rated 4-5 weeks after treatment
How it was run: as §2

[5] = system: ZEAMX (Corn, Field); assay: Postemergence herbicidal evaluation; assay type: in vivo, Zea mays; conditions: postemergence
How it was run: (§3)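 Two-week seedlings sprayed postemergence at 40 psi; formulation: 1:1 acetone/water, 0.5% TWEEN 20; application ≈0.0156–0.500 kg/ha. Greenhouse grow-out, then 0–9 visual scoring at 4–5 weeks.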

[6] = system: GLXMAW (Soybean, Williams); assay: Preemergence herbicidal evaluation; assay type: in vivo, Glycine max, (L.) Merr. cv Williams; conditions: rated 4-5 weeks after treatment
How it was run: as §2

[7] = system: MOOVA (Monochoria); assay: Preemergence weed control under flooded paddy conditions; assay type: in vivo, Monochoria vaginalis; conditions: rated 3-4 weeks after treatment
How it was run: (§4)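 First, seeds or propagules go into the top 0.5 cm of silt loam; next, water is held 1.5 to 3 cm over the soil; then compound (50/50 acetone/water) is pipetted into it at about 0.0313 to 0.500 kg/ha; finally plants are rated visually 0-9 after three to four weeks.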

[8] = system: ORYSAT (Rice, Tebonnet); assay: Postemergence herbicidal evaluation; assay type: in vivo, Oryza sativa, (L.) Tebonnet; conditions: postemergence
How it was run: as §3

[9] = system: ORYSAT (Rice, Tebonnet); assay: Preemergence herbicidal evaluation; assay type: in vivo, Oryza sativa, (L.) Tebonnet; conditions: rated 4-5 weeks after treatment
How it was run: as §2

[10] = system: GALAP (Galium); assay: Postemergence herbicidal evaluation; assay type: in vivo, Galium aparine; conditions: postemergence
How it was run: as §3

[11] = system: CASOB (Sicklepod); assay: Postemergence herbicidal evaluation; assay type: in vivo, Cassia obtusifolia; conditions: postemergence
How it was run: as §3

[12] = system: CYPIR (Rice Flatsedge); assay: Postemergence weed control under flooded paddy conditions; assay type: in vivo, Cyperus iria; conditions: postemergence weeds, rated 3 to 4 weeks after treatment
How it was run: as §1

[13] = system: CHEAL (Lambsquarters, Common); assay: Postemergence herbicidal evaluation; assay type: in vivo, Chenopodium album; conditions: postemergence
How it was run: as §3

[14] = system: CYPSE (Flatsedge); assay: Preemergence weed control under flooded paddy conditions; assay type: in vivo, Cyperus serotinus; conditions: rated 3-4 weeks after treatment
How it was run: as §4

CC(C)S(=O)(=O)NC(=O)CC1SC(=Nc2cc(-n3c(=O)cc(C(F)(F)F)n(C)c3=O)c(F)cc2Cl)N(C)C1=O (centres unmarked) [Compound 119, 2-{{2-Chloro-5-[3,6-dihydro-3-methyl-2,6-dioxo-4-(trifluoromethyl)-1(2H)-pyrimidinyl]-4-fluorophenyl}imino}-N-(isopropylsulfonyl)-3-methyl-4-oxo-5-thiazolidineacetamide]
Herbicidal rating SAGPY ([1]; Rate 0.0313 kg/ha): 0.0
Herbicidal rating SAGPY ([1]; Rate 0.0625 kg/ha): 0.0
Herbicidal rating SAGPY ([1]; Rate 0.1250 kg/ha): 0.0
Herbicidal rating SAGPY ([1]; Rate 0.2500 kg/ha): 0.0
Preemergence herbicidal rating AMBEL ([2]; rate 0.0156 kg/ha): 0.0
Preemergence herbicidal rating AMBEL ([2]; rate 0.0313 kg/ha): 0.0
Preemergence herbicidal rating AMBEL ([2]; rate 0.0625 kg/ha): 0.0
Preemergence herbicidal rating AMBEL ([2]; rate 0.1250 kg/ha): 4.0
Preemergence herbicidal rating AMBEL ([2]; rate 0.2500 kg/ha): 4.0
Herbicidal rating CYPSE ([3]; Rate 0.0313 kg/ha): 0.0
Herbicidal rating CYPSE ([3]; Rate 0.0625 kg/ha): 0.0
Herbicidal rating CYPSE ([3]; Rate 0.1250 kg/ha): 0.0
Preemergence herbicidal rating SETVI ([4]; rate 0.0156 kg/ha): 0.0
Preemergence herbicidal rating SETVI ([4]; rate 0.0313 kg/ha): 0.0
Preemergence herbicidal rating SETVI ([4]; rate 0.0625 kg/ha): 2.0
Preemergence herbicidal rating SETVI ([4]; rate 0.1250 kg/ha): 7.0
Preemergence herbicidal rating SETVI ([4]; rate 0.2500 kg/ha): 7.0
Herbicidal rating ZEAMX ([5]; rate 0.0156 kg/ha): 4.5
Herbicidal rating ZEAMX ([5]; rate 0.0313 kg/ha): 5.5
Herbicidal rating ZEAMX ([5]; rate 0.0625 kg/ha): 6.0
Preemergence herbicidal rating GLXMAW ([6]; rate 0.0156 kg/ha): 0.0
Preemergence herbicidal rating GLXMAW ([6]; rate 0.0313 kg/ha): 0.0
Preemergence herbicidal rating GLXMAW ([6]; rate 0.0625 kg/ha): 0.0
Preemergence herbicidal rating GLXMAW ([6]; rate 0.1250 kg/ha): 1.0
Preemergence herbicidal rating GLXMAW ([6]; rate 0.2500 kg/ha): 2.0
herbicidal effect rating, MOOVA ([7]; 0.0313 kg/ha): 7.5
herbicidal effect rating, MOOVA ([7]; 0.0625 kg/ha): 8.0
herbicidal effect rating, MOOVA ([7]; 0.1250 kg/ha): 9.0
herbicidal effect rating, MOOVA ([7]; 0.2500 kg/ha): 9.0
Herbicidal rating ORYSAT ([8]; rate 0.0156 kg/ha): 1.5
Herbicidal rating ORYSAT ([8]; rate 0.0313 kg/ha): 2.0
Herbicidal rating ORYSAT ([8]; rate 0.0625 kg/ha): 3.0
Preemergence herbicidal rating ORYSAT ([9]; rate 0.0156 kg/ha): 0.0
Preemergence herbicidal rating ORYSAT ([9]; rate 0.0313 kg/ha): 0.0
Preemergence herbicidal rating ORYSAT ([9]; rate 0.0625 kg/ha): 0.0
Preemergence herbicidal rating ORYSAT ([9]; rate 0.1250 kg/ha): 0.0
Preemergence herbicidal rating ORYSAT ([9]; rate 0.2500 kg/ha): 0.0
Herbicidal rating GALAP ([10]; rate 0.0156 kg/ha): 1.0
Herbicidal rating GALAP ([10]; rate 0.0313 kg/ha): 1.0
Herbicidal rating GALAP ([10]; rate 0.0625 kg/ha): 3.0
Herbicidal rating CASOB ([11]; rate 0.0156 kg/ha): 3.0
Herbicidal rating CASOB ([11]; rate 0.0313 kg/ha): 5.0
Herbicidal rating CASOB ([11]; rate 0.0625 kg/ha): 7.0
Herbicidal rating CYPIR ([12]; Rate 0.0313 kg/ha): 2.0
Herbicidal rating CYPIR ([12]; Rate 0.1250 kg/ha): 6.0
Herbicidal rating CYPIR ([12]; Rate 0.2500 kg/ha): 9.0
Herbicidal rating CHEAL ([13]; rate 0.0156 kg/ha): 9.0
Herbicidal rating CHEAL ([13]; rate 0.0313 kg/ha): 9.0
Herbicidal rating CHEAL ([13]; rate 0.0625 kg/ha): 9.0
herbicidal effect rating, CYPSE ([14]; 0.0313 kg/ha): 0.0
herbicidal effect rating, CYPSE ([14]; 0.0625 kg/ha): 0.0
herbicidal effect rating, CYPSE ([14]; 0.1250 kg/ha): 0.0
herbicidal effect rating, CYPSE ([14]; 0.2500 kg/ha): 1.0

Reference: patent US20020137929A1, “1 - (3-heterocyclylphenyl) isothiourea, -isourea, -guanidine and -amidine herbicidal agents” (Intellectual Property Department, BASF Aktiengesellschaft, priority 1998, published 2002)
